Experimental data published in US7763648B2, “Oxa-steroids derivatives as selective progesterone receptor modulators” (Janssen Pharmaceutica N.V., priority 2006, dated 2010).
pIC50: −log10 of the molar value.

What was measured:
[1] = test system: A549 Human lung carcinoma cells; test: A549 Human Lung Cell Assay (transfected, dexamethasone challenge, Luc-assay); type: cell-based; settings: Dexamathasone challenge, 24 h
Method: A549 Human Lung Cell Assay
A549 Human lung carcinoma cells were grown in F-12K Nutrient Mixture containing 10% (v/v) fetal bovine serum (FBS; Invitrogen), 2 mM glutamine and 0.15% sodium dicarbonate (Invitrogen).
A549 cells were split 1 to 3 in 175 cm tissue culture flask. The cells were incubated at 37° C. in CO2 incubator until the cells were 95% confluent (typically 24-30 hours).
The following solutions were prepared in sterile tubes: (a) Solution A: 1.5 μg/ml of DNA in 8.5 ml OPTI-MEM I Reduced Serum Medium. (GIBCO cat# 31985) and (b) Solution B: 6 μl/ml of DMRIE-C Reagent into […] OPTI-MEM I. The two solutions were combined and mixed gently, then incubated at room temperature for 40 minutes.
The A549 cells prepared above were washed with […] of OPTI-MEM I. The medium was removed and 17 ml of the lipid-DNA complex solution was overlayed onto cells. The cells ere then incubated for 16 h at 37° C. in CO2 incubator. The DNA-containing medium was removed and 30 ml of growth medium was added. (5% Charcoal treated FBS) After 5-6 h, the cells were seeded in a 96 well plate and the cells incubated overnight at 37° C. in CO2 incubator.
To each well was then added 5 μl of test compounds and the cells incubated at 37° C. for 10 min. 5 μL of Dexamathasone (CAS [50-02-2]), was then added to each well for challenger and the cells incubated at 37° C. in CO2 incubator for 24 h. 100 μl of Luc-assay buffer was then added into each cell well and the cells incubated for 30 min at room temperature. A 150 μL sample from each well was then transferred into a DYNEX Microlitel plate and read on Top-counter.

[2] = test system: T47D human breast cancer cells; test: T47D Human Breast Cancer Cells Assay (alkaline phosphatase); type: cell-based; settings: 24 h with test compound, luminescence
Method: T47D Human Breast Cancer Cells Assay
T47D human breast cancer cells were grown in RPMI medium without phenol red (Invitrogen) containing 10% (v/v) heat-inactivated fetal bovine serum (FBS; Hyclone), 1% (v/v) penicillin-streptomycin (Invitrogen), 1% (w/v) glutamine (Invitrogen), and […] insulin (Sigma). Incubation conditions were 37° C. in a humidified 5% (v/v) carbon dioxide environment.
The cells were plated in 96-well tissue culture plates at 10,000 cells per well in assay medium [RPMI medium without phenol red (Invitrogen) containing 5% (v/v) charcoal-treated FBS (Hyclone) and 1% (v/v) penicillin-streptomycin (Invitrogen)]. Two days later, the medium was decanted and test compound or control were added at a final concentration of 0.1% (v/v) dimethyl sulfoxide in fresh assay medium. Twenty-four hours later, an alkaline phosphatase assay was performed using a SEAP kit (BD Biosciences Clontech, Palo Alto, Calif.). Briefly, the medium was decanted and the cells were fixed for 30 minutes at room temperature with 5% (v/v) formalin (Sigma). The cells were washed once with room temperature Hank's buffered saline solution (Invitrogen). Equal volumes (0.05 mL) of 1× Dilution Buffer, Assay Buffer and 1:20 substrate/enhancer mixture were then added. After 1 hour incubation at room temperature in the dark, the lysate was transferred to a white 96-well plate (Dynex) and luminescence was read using a LuminoSkan Ascent (Thermo Electron, Woburn, Mass.).

## COc1ccc(C#C[C@]2(O)CC[C@H]3[C@@H]4OCC5=CC(=O)CCC5=C4[C@@H](c4ccc(N(C)C)cc4)C[C@@]32C)cc1 [Compound 15, 11-(4-Dimethylamino-phenyl)-17-hydroxy-17-(4-methoxy-phenylethynyl)-13-methyl-1,2,8,11,12,13,14,15,16,17-decahydro-6H-7-oxa-cyclopenta[a]phenanthren-3-one]
[1]
  pIC50: 7.10
[2]
  pIC50: 8.49

## CN(C)c1ccc([C@H]2C[C@@]3(C)[C@@H](CC[C@@]3(O)C#Cc3ccccc3F)[C@@H]3OCC4=CC(=O)CCC4=C32)cc1 [Compound 16, 11-(4-Dimethylamino-phenyl)-17-(2-fluoro-phenylethynyl)-17-hydroxy-13-methyl-1,2,8,11,12,13,14,15,16,17-decahydro-6H-7-oxa-cyclopenta[a]phenanthren-3-one]
[1]
  pIC50: 7.19
[2]
  pIC50: 8.85

## CN(C)c1ccc([C@H]2C[C@@]3(C)[C@@H](CC[C@@]3(O)C#Cc3cccc(F)c3)[C@@H]3OCC4=CC(=O)CCC4=C32)cc1 [Compound 17, 11-(4-Dimethylamino-phenyl)-17-(3-fluoro-phenylethynyl)-17-hydroxy-13-methyl-1,2,8,11,12,13,14,15,16,17-decahydro-6H-7-oxa-cyclopenta[a]phenanthren-3-one]
[1]
  pIC50: 7.25
[2]
  pIC50: 8.99

## CN(C)c1ccc([C@H]2C[C@@]3(C)[C@@H](CC[C@@]3(O)C#Cc3cc(F)cc(F)c3)[C@@H]3OCC4=CC(=O)CCC4=C32)cc1 [Compound 18, 17-(3,5-Difluoro-phenylethynyl)-11-(4-dimethylamino-phenyl)-17-hydroxy-13-methyl-1,2,8,11,12,13,14,15,16,17-decahydro-6H-7-oxa-cyclopenta[a]phenanthren-3-one]
[1]
  pIC50: 7.46
[2]
  pIC50: 9.04

## CN(C)c1ccc([C@H]2C[C@@]3(C)[C@@H](CC[C@@]3(O)C#Cc3ccccc3Cl)[C@@H]3OCC4=CC(=O)CCC4=C32)cc1 [Compound 19, 17-(2-Chloro-phenylethynyl)-11-(4-dimethylamino-phenyl)-17-hydroxy-13-methyl-1,2,8,11,12,13,14,15,16,17-decahydro-6H-7-oxa-cyclopenta[a]phenanthren-3-one]
[1]
  pIC50: 7.19
[2]
  pIC50: 8.97

## CN(C)c1ccc([C@H]2C[C@@]3(C)[C@@H](CC[C@@]3(O)C#Cc3cccc(Cl)c3)[C@@H]3OCC4=CC(=O)CCC4=C32)cc1 [Compound 20, 17-(3-Chloro-phenylethynyl)-11-(4-dimethylamino-phenyl)-17-hydroxy-13-methyl-1,2,8,11,12,13,14,15,16,17-decahydro-6H-7-oxa-cyclopenta[a]phenanthren-3-one]
[1]
  pIC50: 7.31
[2]
  pIC50: 7.90

## CN(C)c1ccc([C@H]2C[C@@]3(C)[C@@H](CC[C@@]3(O)C#Cc3ccccc3Br)[C@@H]3OCC4=CC(=O)CCC4=C32)cc1 [Compound 21, 17-(2-Bromo-phenylethynyl)-11-(4-dimethylamino-phenyl)-17-hydroxy-13-methyl-1,2,8,11,12,13,14,15,16,17-decahydro-6H-7-oxa-cyclopenta[a]phenanthren-3-one]
[1]
  pIC50: 7.20
[2]
  pIC50: 8.07

## CN(C)c1ccc([C@H]2C[C@@]3(C)[C@@H](CC[C@@]3(O)C#Cc3ccccc3C(F)(F)F)[C@@H]3OCC4=CC(=O)CCC4=C32)cc1 [Compound 22, 11-(4-Dimethylamino-phenyl)-17-hydroxy-13-methyl-17-(2-trifluoromethyl-phenylethynyl)-1,2,8,11,12,13,14,15,16,17-decahydro-6H-7-oxa-cyclopenta[a]phenanthren-3-one]
[1]
  pIC50: 7.29
[2]
  pIC50: 8.50

## CN(C)c1ccc([C@H]2C[C@@]3(C)[C@@H](CC[C@@]3(O)C#Cc3cccc(C(F)(F)F)c3)[C@@H]3OCC4=CC(=O)CCC4=C32)cc1 [Compound 23, 11-(4-Dimethylamino-phenyl)-17-hydroxy-13-methyl-17-(3-trifluoromethyl-phenylethynyl)-1,2,8,11,12,13,14,15,16,17-decahydro-6H-7-oxa-cyclopenta[a]phenanthren-3-one]
[1]
  pIC50: 7.34
[2]
  pIC50: 8.58

## Cc1ccccc1C#C[C@]1(O)CC[C@H]2[C@@H]3OCC4=CC(=O)CCC4=C3[C@@H](c3ccc(N(C)C)cc3)C[C@@]21C [Compound 24, 11-(4-Dimethylamino-phenyl)-17-hydroxy-13-methyl-17-o-tolylethynyl-1,2,8,11,12,13,14,15,16,17-decahydro-6H-7-oxa-cyclopenta[a]phenanthren-3-one]
[1]
  pIC50: 6.95
[2]
  pIC50: 8.24

## Cc1cccc(C#C[C@]2(O)CC[C@H]3[C@@H]4OCC5=CC(=O)CCC5=C4[C@@H](c4ccc(N(C)C)cc4)C[C@@]32C)c1 [Compound 25, 11-(4-Dimethylamino-phenyl)-17-hydroxy-13-methyl-7-m-tolylethynyl-1,2,8,11,12,13,14,15,16,17-decahydro-6H-7-oxa-cyclopenta[a]phenanthren-3-one]
[1]
  pIC50: 7.44
[2]
  pIC50: 8.55

## CN(C)c1ccc([C@H]2C[C@@]3(C)[C@@H](CC[C@@]3(O)C#Cc3ccsc3)[C@@H]3OCC4=CC(=O)CCC4=C32)cc1 [Compound 29, 11-(4-Dimethylamino-phenyl)-17-hydroxy-13-methyl-17-thiophen-3-ylethynyl-1,2,8,11,12,13,14,15,16,17-decahydro-6H-7-oxa-cyclopenta[a]phenanthren-3-one]
[1]
  pIC50: 7.25
[2]
  pIC50: 8.81

## CN(C)CC#C[C@]1(O)CC[C@H]2[C@@H]3OCC4=CC(=O)CCC4=C3C(c3ccc(N(C)C)cc3)C[C@@]21C (some centres unmarked) [Compound 31]
[1]
  pIC50: < 5.52
[2]
  pIC50: < 6.00
